Results published in US10226477B2, “Composition for preventing, improving or treating postmenopausal osteoporosis comprising scopolin” (DONG WOO DANG CO., LTD, priority 2016, dated 2019).
“Also recorded” adds a separate entry of the source.

Tests used:
[1] = test system: ddY female ovariectomized (OVX)-mouse; experiment: Bone mineral density (PIXImus) and femoral micro-CT in ovariectomized menopausal mouse model; type: in vivo; conditions: oral, 12 weeks, scopolin 20 and 40 mg/kg/day, SrCl2 20 mg/kg/day; for decrease in the bone mineral density caused by the menopause: p<0.05 vs. OVX
Description: (§1) To evaluate in vivo efficacy of scopolin, a 10-week-old ddY female ovariectomized (OVX)-mouse was used a menopausal animal model (ovariectomy was performed on the 8-week-old mouse, and the mouse was additionally raised for 2 weeks). Regarding control groups, a Shame mouse that was subjected to laparotomy, but was not subjected to ovariectomy, (normal control group), and an OVX mouse to which physiological saline was added (negative control group) were used, and in addition, a strontium chloride (SrCl2) mouse in which 20 mg/kg/day of SrCl2, which is a compound having an effect in enhancing bone mineral density, was administered by oral injection to an OVX mouse was used as a positive control group in the test for bone mineral density improvement efficacy. Here, an experimental group was prepared by administering scopolin at a dose of 20 mg/kg/day and 40 mg/kg/day by oral injection. The 10-week-old sham-operated mouse and the ddY OVX-mouse were purchased at Central Lab. Animal Inc., and then, were moved to a clean animal breeding room after spending 1 week of purification period in the laboratory animal quarantine room. These mice were individually weighed to be classified into experimental groups without a statistically significant difference in weight. Scopolin used in the experiment was dissolved in 1% DMSO aqueous solution to be prepared as a test solution. In order to bring these mice in the laboratory animal center, a radiation irradiation company, SOYAGREENTEC Inc., was commissioned for sterilization operations using gamma irradiation.
At the beginning of the animal experiment, a PIXImus bone densitometer was used to measure initial bone mineral density (BMD) of the mice. The mice were anesthetized by injecting 50 μl of a mixed anesthetic of zoletil and rompun (a mixture of zoletil and rompun at a ratio of 1:2 was diluted with physiological saline at a ratio of 2:3), and then, were fixed to a bone mineral density measuring frame to measure bone mineral density. After 6 weeks and 12 weeks of the injection of scopolin to the mice, the bone mineral density of the mice was measured by using the PIXImus bone densitometer. After the completion of the experiment during 12 weeks, blood sampling and removal of femoral bone were performed, and micro-CT was taken thereon. In the micro-CT images, bone volume ratios (BV ratios, %), trabecular thickness (Tb.Th), trabecular number (Tb.N), and trabecular spacing (Tb.Sp) were numeralized and analyzed.

[2] = test system: ddY female ovariectomized (OVX)-mouse; experiment: Serum OPG and RANKL levels by ELISA in ovariectomized menopausal mouse model; type: in vivo; conditions: oral, 12 weeks, scopolin 20 and 40 mg/kg/day, SrCl2 20 mg/kg/day; for decrease in the serum level of OPG (bone formation marker) / increase in the serum level of RANKL (bone resorption marker): p<0.05 vs. OVX
Description: as §1
Next, the changes of blood metabolism markers in the blood were examined. After 12 weeks of the experiment performed on the postmenopausal mouse model, the blood sampling was performed thereon, and serum samples were collected therefrom. The serum protein levels of osteoprotegerin (OPG), which is a bone formation marker, and receptor activator of nuclear factor-kappa B ligand (RANKL), which is a bone resorption marker, were analyzed by ELISA. […] However, in the experimental groups to which scopolin was administered at a dose of 20 mg/kg/day and 40 mg/kg/day for 12 weeks, it was confirmed that the decrease in the level of OPG, which is the bone formation marker in the blood, the increase in the level of RANKL, which is the bone resorption marker, and the decrease in the OPG/RANKL ratios were inhibited (see FIGS. 9A, 9B, and 9C). Such results were similar with those obtained by the SrCl2 mouse which is the positive control group. In addition, in the statistical analysis, the significance of the efficacy of scopolin was also confirmed (*: p<0.05 vs. OVX negative control group).

[3] = test system: MC3T3-E1 cells; experiment: Cytotoxicity of scopolin by cell proliferation analysis (EZ-Cytox, water-soluble tetrazolium salt); type: cell-based; conditions: 1 μg/ml, 5 μg/ml and 10 μg/ml, cultured 2 days, vs. physiological saline control
Description: Cytotoxicity of scopolin was evaluated by cell proliferation analysis using an EZ-Cytox Enhanced Cell Viability Assay Kit using a water-soluble tetrazolium salt. In detail, MC3T3-E1 cells (3×10^3 cells/well), which are osteoblasts, were cultured in an alpha-minimum essential medium (α-MEM) supplemented with 10% bovine fetus serum, 1 mM sodium pyruvate, 100 unit/L penicillin, and 100 mg/L streptomycin at a temperature of 37° C. under conditions provided with 5% CO2, and then, the cells were treated with scopolin at three different concentrations (1 μg/ml, 5 μg/ml, and 10 μg/ml) and cultured for 2 days. Next, the tetrazolium salt was applied to each of the cultured cells and a sample, followed by being cultured at a temperature of 37° C. for 2 hours, and then, absorbance thereof was measured at a wavelength of 450 nm.

[4] = test system: MC3T3-E1 cells; experiment: Osteoblast differentiation: alkaline phosphatase (ALP) activity; type: cell-based
Description: The efficacy of scopolin on the differentiation of osteoblasts was evaluated by using the MC3T3-E1 cells. Ascorbic acid (50 μg/ml) and β-glycerophosphate (10 mM), which are osteoblast inducers, were added to the MC3T3-E1 cells, to thereby induce the differentiation for 3 days. Then, the resulting cells were treated with scopolin. Scopolin was dissolved in 1% dimethyl sulfoxide (DMSO) aqueous solution, and then, was applied to the MC3T3-E1 cells at concentrations of 1 μg/ml (Sco1), 5 μg/ml (Sco5), and 10 μg/ml (Sco10). The resulting cells were cultured for additional 48 hours. As a control group, cells were cultured in the same amount of 1% DMSO aqueous solution in which scopolin was not treated. To determine the efficacy of scopolin on the differentiation of osteoblasts, the activity of alkaline phosphatase (ALP) was measured. In detail, the cells that were washed using physiological saline and dissolved using a lytic agent was treated with p-nitrophenyl phosphate, which is a substrate of ALP, and then, cultured at a temperature of 37° C. for 1 hour. Subsequently, 0.5N NaOH, which is a reaction terminating solution, was added the cultured cells, and then, absorbance thereof was measured at a wavelength of 405 nm.

[5] = test system: MC3T3-E1 cells; experiment: Osteoblast differentiation: ALP staining; type: cell-based; conditions: 5 μg/ml
[6] = test system: MC3T3-E1 cells; experiment: Mineralization of osteoblasts by Alizarin Red S staining; type: cell-based; conditions: 5 μg/ml
Description: The mineralization of osteoblasts was analyzed by an Alizarlin red S staining method after experimental groups and a control group were each treated with 5 μg/ml of scopolin and cultured. […] That is, it was confirmed that scopolin was effective in stimulating the differentiation of osteoblasts.

Row | Structure (SMILES) | increase in trabecular spacing (Tb.Sp) [1] | low density of the bone structure (micro-CT images) [1] | reduction in BV ratios (bone volume ratio) [1] | reduction in trabecular number (Tb.N) [1] | reduction in trabecular thickness (Tb.Th) [1] | decrease in the bone mineral density caused by the menopause [1] | decrease in the OPG/RANKL ratios [2] | decrease in the serum level of OPG (bone formation marker) [2] | increase in the serum level of RANKL (bone resorption marker) [2] | effect on the proliferation of the MC3T3-E1 cells (cytotoxicity) [3] | differentiation of osteoblasts (ALP activity) ([4]; 5 μg/ml or 10 μg/ml, 48 hours after 3 days induction, p<0.05 vs. negative control) | stimulating osteoblast differentiation (overall conclusion) ([4]; MC3T3-E1 cells, 1-10 μg/ml) | ALP staining [5] | mineralization (Alizarin Red S staining) [6]
1 | [Cl-].[Cl-].[Sr+2] [SrCl2, strontium chloride, reference compound] | similar | similar | similar | similar | similar | similar | similar | similar | similar | – | – | – | – | –
2 | COc1cc2ccc(=O)oc2cc1O[C@@H]1O[C@H](CO)[C@@H](O)[C@H](O)[C@H]1O [scopolin] | inhibited | significantly inhibits; also recorded: inhibited | inhibited | inhibited | inhibited | significantly inhibits; also recorded: inhibited | inhibited | significantly inhibits; also recorded: inhibited | significantly inhibits; also recorded: inhibited | not toxic; also recorded: no adverse effect | statistically significantly increased | significant effect; also recorded: effective | increased | increased
